Measurements from PMC3441713, “Citrullination of Histone H3 Interferes with HP1-Mediated Transcriptional Repression” (PLoS Genetics, 2012).
“Also recorded” adds a separate entry of the source.

How the values were obtained:
MCF7 cells [1] = assay: ChIP on HERV LTRs and gene promoters in MCF7 cells; format: cell-based, human
Procedure: Values are averaged from 3 independent experiments.
Ionophores were used at 1 µM.

MCF7 cells [2] = assay: RT-qPCR of HERV, repeat and immune gene mRNA in MCF7 cells; format: cell-based, human
Procedure: (§1) HP1 small interfering RNAs (siRNAs) were described previously. PADI4 (J-012471-05) and Glyceraldehyde-3-phosphate dehydrogenase control siRNAs were purchased from Dharmacon. Cells were harvested 72 h after transfection with DharmaFECT 1 (T 2001-03). Total RNA from PBMCs and MCF7 cells was extracted with RNeasy (Qiagen) and quantified with an ND-1000 (Nanodrop). After DNase treatment (Roche), reverse transcription was performed using SuperScript III (Invitrogen) and random hexanucleotides according to the manufacturer's instructions. Complementary DNA was quantified by RT-qPCR as previously described. Proteins were extracted as described previously and detected by Western blotting. Acid extraction of histones was conducted as described by Shechter, et al., [78].

MCF7 cells [3] = assay: Immunoblot of PADI4 and H3cit8K9me3 in MCF7 cells; format: cell-based, human
Description: Anti-H3cit8K9me3 antibody was produced in rabbits using a peptide coupled to KLH with the following sequence: ARTKQTA (cit)(Kme3)[…]. Anti-PADI4 (ChIP: P4749; immunoblots: ab50332), anti-H3cit(2,8,17) (ab5103), anti-H3(ab1791), and anti-H3K9me3 (ab8898) antibodies were purchased from Abcam. Anti-HP1α (ChIP: 1H5; immunoblots: 2G9) and anti-Brg1 (2E12) were from Euromedex. Calcium ionophore A23187 (used on HEK293 and MCF7 cells) and ionomycin (only ionophore tolerated by Jurkat cells), and 17-ß-estradiol (E2758) were purchased from Sigma. DNA was labeled with 4′,6-diamidino-2-phenylindole (DAPI; Invitrogen) at a concentration of 150 ng.ml^−1. […] Peptides were carefully quantified by amino acid analysis, and the presence of the modifications was confirmed by mass spectrometry. […]
as §1

Jurkat T cells [4] = assay: PADI4 production in Jurkat T cells after estrogen/ionophore treatment (data not shown); format: cell-based
Jurkat T cells [5] = assay: RT-qPCR of TNFα, IL8 and PADI4 mRNA in Jurkat T cells; format: cell-based; details: 200 µM Cl-amidine, 72 h; cells stimulated by ionomycin and PMA; duplicate
Procedure: (B) Total RNA was isolated from Jurkat cells either un-stimulated or treated with ionomycin and PMA for 2 hour. Changes in mRNA levels for the indicated genes were quantified by RT-qPCR. The data are presented as the means ± SEM of triplicate experiments. […] (D) Total RNA was isolated from Jurkat cells treated as in B minus or plus PADI-inhibitor cl-amidine as indicated. Changes in mRNA levels for the indicated genes were quantified by RT-qPCR. The data are presented as the means ± SEM of duplicate experiments.
Jurkat cells were treated with phorbol myristate acetate (PMA) at 40 nM. Ionophores were used at 1 µM. PADI4 inhibitor, Cl-amidine (from Bertin Pharma) was dissolved in 1× PBS as a 50 mM stock solution. MCF7 and Jurkat cells were treated with 200 µM Cl-amidine in complete cell culture medium for exactly 72 h.

[6] = E2 (200 nM, 24 h) + A23187 (5 µM, 30 min), minus or plus 200 µM Cl-amidine, relative to un-induced

Compound | levels of citrullinated histone H3 at HERV-H, HERV-W/LTR and TNFα promoter (MCF7 cells [1]; E2+A23187, anti-H3cit (2, 8, 17) or anti-H3cit8K9me3) | levels of HP1α recruitment at HERV-H, HERV-W/LTR and TNFα promoter (MCF7 cells [1]; E2+A23187, anti-HP1α) | expression of HERV-H/env62, ERVWE1 and the selected cytokine genes (MCF7 cells [2]; [6]) | expression of HERV-H/env62 (MCF7 cells [2]; E2 and A23187, 24 h, normalized to RPLP0, three replicates) | total levels of H3cit8K9me3 modification (MCF7 cells [3]; 200 nM E2 24 h, then 5 µM A23187 30 min) | total levels of PADI4 (MCF7 cells [3]; 200 nM E2 24 h, then 5 µM A23187 30 min in Locke's solution) | production of PADI4 (Jurkat T cells [4]) | levels of HP1α occupancy at HERV-H, HERV-W/LTR and TNFα promoter (MCF7 cells [1]; E2+A23187 plus 200 µM Cl-amidine, anti-HP1α) | expression of HERV-H/env62, ERVWE1 and the selected cytokine genes (MCF7 cells [2]; 200 µM Cl-amidine, 72 h, no E2/A23187, four replicates) | TNFα and IL8 mRNA accumulation (Jurkat T cells [5]) | levels of H3Cit8K9me3 (MCF7 cells [3]; 200 µM Cl-amidine, 72 h)
17-ß-estradiol [E2/A23187] | locally increases levels of citrullinated histone H3 | markedly decreased | Cl-amidine-sensitive increase in expression | increases the expression | increases total levels | increases total levels; also recorded: induced | stimulated production | – | – | – | –
NC(=O)[C@H](CCCN=C(N)CCl)NC(=O)c1ccccc1 [Cl-amidine] | – | – | Cl-amidine-sensitive increase in expression | – | – | – | – | partially restored | reduced expression | reduced the kinetic and the abundance | decreased levels of H3Cit8K9me3
